Reference: ChEMBL document CHEMBL3856198, “Synthesis of novel 17-(4'-formyl)pyrazolylandrosta-5,16-dienes and their derivatives as potent 17α-hydroxylase/C17,20-lyase inhibitors or antiproliferative agents depending on the substitution pattern of the heteroring” (Eur J Med Chem, 2016)

Legend:
Assay type in all cases: functional
[1] = Growth inhibition of human MDA-MB-231 cells at 30 uM after 72 hrs by MTT assay; settings: MDA-MB-231, 72 h, read-out: GI
[2] = Growth inhibition of human MCF7 cells at 10 uM after 72 hrs by MTT assay; settings: MCF7, 72 h, read-out: GI
[3] = Growth inhibition of human T47D cells at 30 uM after 72 hrs by MTT assay; settings: read-out: GI
[4] = Growth inhibition of human T47D cells at 10 uM after 72 hrs by MTT assay; settings: read-out: GI
[5] = Growth inhibition of human MCF7 cells at 30 uM after 72 hrs by MTT assay; settings: MCF7, 72 h, read-out: GI
[6] = Growth inhibition of human MDA-MB-361 cells at 10 uM after 72 hrs by MTT assay; settings: MDA-MB-361, 72 h, read-out: GI
[7] = Growth inhibition of human MDA-MB-361 cells at 30 uM after 72 hrs by MTT assay; settings: MDA-MB-361, 72 h, read-out: GI
[8] = Growth inhibition of human MDA-MB-231 cells at 10 uM after 72 hrs by MTT assay; settings: MDA-MB-231, 72 h, read-out: GI

Compound | inhibition of growth at 30 µM [1] [%] | inhibition of growth at 10 µM [2] [%] | inhibition of growth at 30 µM [3] [%] | inhibition of growth at 10 µM [4] [%] | inhibition of growth at 30 µM [5] [%] | inhibition of growth at 10 µM [6] [%] | inhibition of growth at 30 µM [7] [%] | inhibition of growth at 10 µM [8] [%]
CC(=O)O[C@H]1CC[C@@]2(C)C(=CC[C@@H]3[C@@H]2CC[C@]2(C)C(c4nn(-c5ccc(C)cc5)cc4C=O)=CC[C@@H]32)C1 | 27.2 | 24.6 | 50.8 | 37.2 | 44.4 | < 20 | 34.9 | < 20
CC(=O)O[C@H]1CC[C@@]2(C)C(=CC[C@@H]3[C@@H]2CC[C@]2(C)C(c4nn(-c5ccc(Cl)cc5)cc4C=O)=CC[C@@H]32)C1 | 56.2 | 43.6 | 62.8 | 44.8 | 65.2 | 32.1 | 63.7 | < 20
C[C@]12CC[C@H](O)CC1=CC[C@@H]1[C@@H]2CC[C@]2(C)C(c3nn(-c4ccc([N+](=O)[O-])cc4)cc3C=O)=CC[C@@H]12 | 77 | 64.8 | 79.6 | 72.5 | 75.1 | 63.9 | 80 | 51.8
Cc1ccc(-n2cc(CO)c(C3=CC[C@H]4[C@@H]5CC=C6C[C@@H](O)CC[C@]6(C)[C@H]5CC[C@]34C)n2)cc1 | 96.6 | 64.8 | 90.7 | 68.7 | 83.3 | 73.5 | 89.4 | 72.4
Cc1ccc(-n2cc(C=O)c(C3=CC[C@H]4[C@@H]5CC=C6C[C@@H](O)CC[C@]6(C)[C@H]5CC[C@]34C)n2)cc1 | 76.9 | 47.8 | 74.8 | 47.2 | 72.6 | 57.3 | 75.8 | 58.9
C[C@]12CC[C@H](O)CC1=CC[C@@H]1[C@@H]2CC[C@]2(C)C(c3nn(-c4ccc(Br)cc4)cc3C=O)=CC[C@@H]12 | 55.8 | 22.2 | 70.7 | 36.2 | 61 | 48.1 | 60.4 | < 20
C[C@]12CC[C@H](O)CC1=CC[C@@H]1[C@@H]2CC[C@]2(C)C(c3nn(-c4ccc(C#N)cc4)cc3C=O)=CC[C@@H]12 | 93.1 | 64.4 | 86.4 | 66.9 | 80.2 | 60.8 | 74.3 | 49.1
Cn1cc(CO)c(C2=CC[C@H]3[C@@H]4CC=C5C[C@@H](O)CC[C@]5(C)[C@H]4CC[C@]23C)n1 | 43.6 | < 20 | 56.4 | 37.4 | 33.8 | 32.5 | 47.1 | < 20
Cn1cc(C=O)c(C2=CC[C@H]3[C@@H]4CC=C5C[C@@H](O)CC[C@]5(C)[C@H]4CC[C@]23C)n1 | 93.4 | 42.2 | 70.4 | 62 | 48.6 | 62.1 | 70 | 86.8
CC(=O)O[C@H]1CC[C@@]2(C)C(=CC[C@@H]3[C@@H]2CC[C@]2(C)C(c4n[nH]cc4C=O)=CC[C@@H]32)C1 | < 20 | < 20 | 63.3 | < 20 | 83.5 | < 20 | 64.2 | < 20
CC(=O)O[C@H]1CC[C@@]2(C)C(=CC[C@@H]3[C@@H]2CC[C@]2(C)C(c4nn(-c5ccc([N+](=O)[O-])cc5)cc4C=O)=CC[C@@H]32)C1 | 22.7 | < 20 | 62.8 | < 20 | 51.9 | < 20 | 56.2 | < 20
C[C@]12CC[C@H](O)CC1=CC[C@@H]1[C@@H]2CC[C@]2(C)C(c3nn(-c4ccc(Cl)cc4)cc3C=O)=CC[C@@H]12 | 41.1 | 32.1 | 68.4 | 43.6 | 55.7 | 48.4 | 60.5 | < 20
CC(=O)O[C@H]1CC[C@@]2(C)C(=CC[C@@H]3[C@@H]2CC[C@]2(C)C(c4nn(-c5ccc(Br)cc5)cc4C=O)=CC[C@@H]32)C1 | 51.9 | 41.2 | 63.6 | 51.4 | 60.6 | 33.8 | 55.1 | 21.7
COc1ccc(-n2cc(C=O)c(C3=CC[C@H]4[C@@H]5CC=C6C[C@@H](OC(C)=O)CC[C@]6(C)[C@H]5CC[C@]34C)n2)cc1 | 54.4 | 43.8 | 69.1 | 33.9 | 77.7 | 32.8 | 66.7 | < 20
CC(=O)O[C@H]1CC[C@@]2(C)C(=CC[C@@H]3[C@@H]2CC[C@]2(C)C(c4nn(C)cc4C=O)=CC[C@@H]32)C1 | 26.2 | 30.9 | 65.2 | < 20 | 61.9 | < 20 | 55.6 | < 20
COc1ccc(-n2cc(CO)c(C3=CC[C@H]4[C@@H]5CC=C6C[C@@H](O)CC[C@]6(C)[C@H]5CC[C@]34C)n2)cc1 | 92.9 | 51.8 | 79.6 | 62.2 | 75.5 | 64.7 | 86.7 | 69.3
CC(=O)O[C@H]1CC[C@@]2(C)C(=CC[C@@H]3[C@@H]2CC[C@]2(C)C(c4nn(-c5ccc(C#N)cc5)cc4C=O)=CC[C@@H]32)C1 | 84.5 | 62.2 | 83.6 | 60.4 | 85.3 | 58.9 | 80.4 | 43
